Our source for the DC50 and Dmax values is US20250340552A1, “COMPOUNDS, COMPOSITIONS AND METHODS OF TREATING DISORDERS” (HOTSPOT THERAPEUTICS, INC., priority 2022, published 2025).

The target of this assay is T1, Cbl-B (Homo sapiens, UniProt Q13191).
T1 construct: MSD-Based Assay for Degradation of Cbl-B in THP-1 Cells; endogenous in cells; host or cells: THP-1 (title) / Jurkat (protocol text)
As to the kind of experiment: MSD-based assay for degradation of Cbl-B in THP-1 cells. It is filed as cell-based. Summed up: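 Reported Dmax bins are A >70%, B 50–70%, C 30–50% and D <30%, from an electrochemiluminescence (MSD) sandwich assay of Cbl-B in cell lysates. THP-1 cells were exposed to compounds for 24 hours before lysis.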

Setting [1] is: Cbl-B degradation, Jurkat cells seeded (heading: THP-1 cells), 24 hours incubation, MSD readout.
Setting [2] is: Cbl-B degradation, Jurkat cells seeded (heading: THP-1 cells), 24 hours incubation, MSD readout, read-out: Dmax.

Read-outs that look alike come from different tables or passages of the source.

T1 sequence (Q13191 whole entry): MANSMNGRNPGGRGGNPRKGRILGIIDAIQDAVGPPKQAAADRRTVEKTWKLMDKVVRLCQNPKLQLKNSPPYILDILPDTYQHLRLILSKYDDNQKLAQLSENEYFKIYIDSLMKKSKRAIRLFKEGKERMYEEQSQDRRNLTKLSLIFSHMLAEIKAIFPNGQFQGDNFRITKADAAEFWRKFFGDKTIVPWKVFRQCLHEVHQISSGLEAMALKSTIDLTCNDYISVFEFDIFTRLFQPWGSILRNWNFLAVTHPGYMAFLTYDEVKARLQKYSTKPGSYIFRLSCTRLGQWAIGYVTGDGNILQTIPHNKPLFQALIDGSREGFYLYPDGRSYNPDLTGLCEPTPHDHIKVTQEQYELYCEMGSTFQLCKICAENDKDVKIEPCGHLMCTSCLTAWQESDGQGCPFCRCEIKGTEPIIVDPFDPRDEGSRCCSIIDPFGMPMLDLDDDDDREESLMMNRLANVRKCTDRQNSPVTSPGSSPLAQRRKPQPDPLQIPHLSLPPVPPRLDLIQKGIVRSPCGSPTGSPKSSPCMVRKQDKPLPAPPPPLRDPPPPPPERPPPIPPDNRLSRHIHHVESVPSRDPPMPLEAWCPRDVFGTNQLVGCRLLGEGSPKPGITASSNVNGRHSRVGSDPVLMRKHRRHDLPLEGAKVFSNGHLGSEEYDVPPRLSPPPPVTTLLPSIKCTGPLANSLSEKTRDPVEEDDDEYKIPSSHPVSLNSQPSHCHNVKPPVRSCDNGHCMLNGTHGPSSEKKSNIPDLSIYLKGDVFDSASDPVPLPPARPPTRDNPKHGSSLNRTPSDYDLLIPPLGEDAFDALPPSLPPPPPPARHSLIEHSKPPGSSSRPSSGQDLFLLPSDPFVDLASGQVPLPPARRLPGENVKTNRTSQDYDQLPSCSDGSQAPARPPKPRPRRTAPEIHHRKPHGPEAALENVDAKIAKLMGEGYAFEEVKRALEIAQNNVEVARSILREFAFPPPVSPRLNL

In general, DC50 refers to the concentration at which degradation of the target reaches its halfway point. Read a low DC50 as degradation at low concentration. One may read the Dmax as the greatest extent of degradation seen. `CN(CCOC1CCN(Cc2cc(C(F)(F)F)c3cn(-c4cccc([C@H](c5nncn5C)C5CCC5)c4)c(=O)n3c2)CC1)C(=O)c1ccc(N2C3CC2CN(c2ccc4c(c2)CN([C@H]2CCC(=O)NC2=O)C4=O)C3)cc1` (single isomer, unassigned) [Compound 146]: the DC50 under setting [1] was > 10000 nM. The Dmax under setting [2] was < 30%.

As to `CN(CC1CCN(Cc2cc(C(F)(F)F)c3cn(-c4cccc([C@H](c5nncn5C)C5CCC5)c4)c(=O)n3c2)CC1)C(=O)c1ccc(C2CCN(c3ccc4c(c3)CN([C@@H]3CCC(=O)NC3=O)C4=O)CC2)cc1` (single isomer, unassigned) [Compound 199], under setting [1], the DC50 fell in the range of 30 to 300 nM. Also, the Dmax under setting [2] fell in the range of 30 to 50%.

As to `Cn1cnnc1CC1(c2cccc(-n3cc4c(C(F)(F)F)cc(CN5CCN(C(=O)CN6CCC(CN7CCN(c8ccc9c(c8)CN([C@@H]8CCC(=O)NC8=O)C9=O)CC7)CC6)CC5)cn4c3=O)c2)COC1` (single isomer, unassigned) [Compound 131], the DC50 under setting [1] was > 10000 nM. Besides, under setting [2], the Dmax is 30 to 50%.

Take `Cn1cnnc1[C@@H](c1cccc(-n2cc3c(C(F)(F)F)cc(CN4CCC(OC(=O)N5CCC(CC6CCN(c7ccc8c(c7)CN([C@H]7CCC(=O)NC7=O)C8=O)CC6)CC5)CC4)cn3c2=O)c1)C1CCC1` (single isomer, unassigned) [Compound 254]: the DC50 under setting [1] is < 30 nM. The Dmax under setting [2] is > 70%.

In the case of `CN(CC1CCN(Cc2cc3c(c(C(F)(F)F)c2)CN(c2cccc([C@H](c4nncn4C)C4CCC4)c2)C3=O)CC1)C(=O)c1ccc(N2CCN(c3ccc4c(c3)CN([C@H]3CCC(=O)NC3=O)C4=O)CC2)cc1` [Compound 184], under setting [1], the DC50 was < 30 nM. Also, under setting [2], the Dmax is > 70%.

In the case of `Cn1cnnc1CC1(c2cccc(-n3cc4c(C(F)(F)F)cc(CN5CCC(C6CCN(C(=O)c7ccc(N8CCN(c9ccc%10c(c9)CN([C@@H]9CCC(=O)NC9=O)C%10=O)CC8)cc7)CC6)CC5)cn4c3=O)c2)COC1` [Compound 261], under setting [1], the DC50 was < 30 nM. Moreover, the Dmax (THP-1) was > 70%.

As for `CN(CCOC1CCN(Cc2cc(C(F)(F)F)c3cn(-c4cccc([C@H](c5nncn5C)C5CCC5)c4)c(=O)n3c2)CC1)C(=O)c1ccc(N2CCC(c3ccc4c(c3)CN([C@H]3CCC(=O)NC3=O)C4=O)CC2)cc1` [Compound 152], under setting [1], the half-maximal degradation concentration (DC50) is < 30 nM. The Dmax under setting [2] was > 70%.

`CN(CC1CCN(Cc2cc(C(F)(F)F)c3cn(-c4cccc(C5(Cc6nncn6C)COC5)c4)c(=O)n3c2)CC1)C(=O)c1ccc(C2CCN(c3ccc4c(c3)CN([C@@H]3CCC(=O)NC3=O)C4=O)CC2)cc1` [Compound 241]: under setting [1], the DC50 is < 30 nM. Moreover, the Dmax under setting [2] was in the range of 50 to 70%.

In the case of `CO[C@H]1C[C@](c2cccc(-n3cc4c(C(F)(F)F)cc(CN5CCN(CCc6ccc(N7CCN(c8ccc9c(c8)CN([C@@H]8CCC(=O)NC8=O)C9=O)CC7)cc6)CC5)cn4c3=O)c2)(c2nncn2C)C1` [Compound 251], the DC50 under setting [1] fell in the range of 30 to 300 nM. In addition, the Dmax under setting [2] is > 70%.

For the compound `Cn1cnnc1[C@@H](c1cccc(-n2cc3c(C(F)(F)F)cc(CN4CCN(CCc5ccc(N6CCN(c7ccc8c(c7)CN([C@H]7CCC(=O)NC7=O)C8=O)CC6)cc5)CC4)cn3c2=O)c1)C1CCC1` (single isomer, unassigned) [Compound 126], the DC50 under setting [1] is < 30 nM. Besides, the Dmax under setting [2] is > 70%.

Consider `Cn1cnnc1[C@@H](c1cccc(-n2cc3c(C(F)(F)F)cc(CN4CCC(CN5CCC(CN6CCN(c7ccc8c(c7)CN(C7CCC(=O)NC7=O)C8=O)CC6)CC5)CC4)cn3c2=O)c1)C1CCC1` (stereo partly drawn) [Compound 38], for which, under setting [1], the DC50 was in the range of 1000 to 10000 nM. In addition, the Dmax under setting [2] lay within 50 to 70%.

On to `CO[C@H]1C[C@](c2cccc(-n3cc4c(C(F)(F)F)cc(CN5CCC(COCc6ccc(CN7CCN(c8ccc9c(c8)CN([C@H]8CCC(=O)NC8=O)C9=O)CC7)cc6)CC5)cn4c3=O)c2)(c2nncn2C)C1` [Compound 224], for which the DC50 under setting [1] was < 30 nM. Besides, the Dmax under setting [2] was 50 to 70%.

`CN(CCCN1CCN(Cc2cc(C(F)(F)F)c3cn(-c4cccc([C@H](c5nncn5C)C5CCC5)c4)c(=O)n3c2)CC1)C(=O)c1ccc(N2CCN(c3ccc4c(c3)CN([C@@H]3CCC(=O)NC3=O)C4=O)CC2)cc1` (single isomer, unassigned) [Compound 123]: the DC50 under setting [1] is < 30 nM. Under setting [2], the Dmax is > 70%.

Turning to `Cn1cnnc1[C@@H](c1cccc(-n2cc3c(C(F)(F)F)cc(CN4CCC(OCc5ccc(N6CCN(c7ccc8c(c7)CN([C@H]7CCC(=O)NC7=O)C8=O)CC6)cc5)CC4)cn3c2=O)c1)C1CCC1` (single isomer, unassigned) [Compound 156], under setting [1], the DC50 was < 30 nM. The Dmax under setting [2] was 50 to 70%.

Regarding `Cn1cnnc1[C@@H](c1cccc(-n2cc3c(C(F)(F)F)cc(CN4CCC(CN5CCC(CN6CCN(c7cc8c(cc7F)C(=O)N(C7CCC(=O)NC7=O)C8=O)CC6)CC5)CC4)cn3c2=O)c1)C1CCC1` (stereo partly drawn) [Compound 29], the DC50 under setting [1] was > 10000 nM. In addition, the Dmax under setting [2] was < 30%.

For the compound `Cn1cnnc1[C@@H](c1cccc(N2Cc3c(cc(CN4CCC(OCCOCc5ccc(COCCNc6cccc7c6C(=O)N(C6CCC(=O)NC6=O)C7=O)cc5)CC4)cc3C(F)(F)F)C2=O)c1)C1CCC1` (stereo partly drawn) [Compound 22], the DC50 under setting [1] lay within 30 to 300 nM. The Dmax under setting [2] is > 70%.

Under setting [1], `CO[C@H]1C[C@](c2cccc(-n3cc4c(C(F)(F)F)cc(CN5CCC(OCCN6CCC(CN7CCN(c8ccc9c(c8)CN([C@@H]8CCC(=O)NC8=O)C9=O)CC7)CC6)CC5)cn4c3=O)c2)(c2nncn2C)C1` [Compound 69] showed a DC50 of 300 to 1000 nM. Further, under setting [2], the greatest degradation seen (Dmax) was in the range of 30 to 50%.

`CN(CC1CCN(Cc2cc3c(c(C(F)(F)F)c2)CN(c2cccc([C@H](c4nncn4C)C4CCC4)c2)C3=O)CC1)C(=O)c1ccc(N2CCN(c3ccc4c(c3)CN([C@@H]3CCC(=O)NC3=O)C4=O)CC2)cc1` [Compound 183] registered a DC50 under setting [1] of 30 to 300 nM. Moreover, the Dmax under setting [2] was in the range of 50 to 70%.

As to `Cn1cnnc1[C@@H](c1cccc(-n2cc3c(C(F)(F)F)cc(CN4CCC(CC(=O)N5CCC(CC6CCN(c7ccc8c(c7)CN([C@H]7CCC(=O)NC7=O)C8=O)CC6)CC5)CC4)cn3c2=O)c1)C1CCC1` [Compound 176], the DC50 under setting [1] was < 30 nM. Under setting [2], the Dmax was > 70%.

`CN(CCOC1CCN(Cc2cc(C(F)(F)F)c3cn(-c4cccc([C@H](c5nncn5C)C5CCC5)c4)c(=O)n3c2)CC1)C(=O)c1ccc(N2CCN(c3ccc4c(c3)CN([C@H]3CCC(=O)NC3=O)C4=O)CC2)cc1` [Compound 34] displayed a DC50 under setting [1] of 30 to 300 nM. For the same compound, the Dmax (THP-1) was > 70%.

Consider `Cn1cnnc1[C@@H](c1cccc(-n2cc3c(C(F)(F)F)cc(CN4CCC(OC(=O)N5CCC(CN6CCN(c7ccc8c(c7)CN([C@H]7CCC(=O)NC7=O)C8=O)CC6)CC5)CC4)cn3c2=O)c1)C1CCC1` [Compound 238], for which the DC50 under setting [1] was < 30 nM. Also, where the note is “THP-1”, the Dmax was > 70%.

As to `Cn1cnnc1[C@@H](c1cccc(-n2cc3c(C(F)(F)F)cc(CN4CCC[C@@H](OCc5ccc(CC6CCN(c7ccc8c(c7)CN([C@H]7CCC(=O)NC7=O)C8=O)CC6)cc5)C4)cn3c2=O)c1)C1CCC1` (single isomer, unassigned) [Compound 192], under setting [1], the DC50 lay within 1000 to 10000 nM.

On to `Cn1cnnc1[C@@H](c1cccc(-n2cc3c(C(F)(F)F)cc(CN4CCC(OC(=O)N5CCC(CC6CCN(c7ccc8c(c7)CN([C@@H]7CCC(=O)NC7=O)C8=O)CC6)CC5)CC4)cn3c2=O)c1)C1CCC1` (single isomer, unassigned) [Compound 253], for which the DC50 under setting [1] was 30 to 300 nM. For the same compound, under setting [2], the Dmax was 50 to 70%.
